Experiments:
[1] = test system: Phytophthora infestans; experiment: microbe, parasite or virus in culture; assay type: cell-based
[2] = test system: Botrytis cinerea; experiment: Foliar spray for the control of geranium gray mold; assay type: in vivo; conditions: 300 ppm, greenhouse foliar spray, geranium plants
Experimental: Foliar Spray for the Control of Geranium Gray Mold Caused by Botrytis cinerea
Technical grade material at defined ppm rates (w/v) in an acetone:water mixture (1:9) containing 0.1% Tween 20 (v/v) is sprayed to near run-off onto mature greenhouse-grown geranium plants (var. “Pinto White”) in the second leaf stage. Treated plants are inoculated within 24 hours with an aqueous suspension of approximately 100,000 conidia/ml of Botrytis cinerea grown on artificial medium. Inoculated plants are placed into a high humidity chamber for 5 days and then transferred to the greenhouse for one day for disease development. Disease severity is examined and the % control is calculated as [% disease on untreated plants−% disease on treated plants]/% disease on untreated plants. The results of these tests are shown in Table 2A below under the heading “Foliar Application—Geranium Gray Mold”.

[3] = test system: Phytophthora infestans; assay type: in vivo; conditions: 300 ppm, greenhouse foliar spray, tomato plants
[4] = test system: Sclerotium rolfsii; assay type: cell-based
[5] = test system: Pyricularia oryzae; experiment: whole plant or invertebrate; assay type: in vivo; conditions: for pest or weed control at 300 ppm: Pyricularia oryzae, foliar, read-out: Foliar Application (Percent Control) Rice Blast
[6] = test system: Erysiyphe graminis f.sp. hordei; experiment: Foliar spray for the control of barley powdery mildew; assay type: in vivo; conditions: greenhouse foliar spray, barley plants; for pest or weed control at 300 ppm: Hordeum vulgare, read-out: Foliar Application (Percent Control) Barley Powdery Mildew
Experimental: Foliar Spray for the Control of Barley Powdery Mildew caused by Erysiyphe graminis f.sp. hordei
Technical grade material at defined ppm rates (w/v) in an acetone:water mixture (1:9) containing 0.1% Tween 20 (v/v) is sprayed to near run-off onto 7-days-old greenhouse-grown barley plants (var. “Robust”) at the cotyledon stage. Treated plants are inoculated within 24 hours by brushing mildew-infected plants over the treated plants. Inoculated plants are kept in the greenhouse for 6–8 days for disease development. Disease severity is examined and the % control is calculated as [% disease on untreated plants−% disease on treated plants]/% diseases in untreated plants. The results of these tests are shown in Table 2A below under the heading “Foliar Application—Barley Powdery Mildew”.

[7] = test system: Fusarium nivale; experiment: microbe, parasite or virus in culture; assay type: cell-based
[8] = test system: Pythium ultimum; experiment: microbe, parasite or virus in culture; assay type: cell-based
[9] = test system: Cucumber Powdery Mildew; experiment: Soil drench for the control of cucumber powdery mildew; assay type: in vivo; conditions: 300 ppm, greenhouse soil drench
Experimental: (§1) Soil Drench for the Control of Barley or Cucumber Powdery Mildew
(§2) Technical grade material formulated as described for foliar sprays is dispensed at defined rates (ml/cm^3) into the soil in the pots for barley and cucumber in the stages as described for the foliar sprays. Treated plants are inoculated, within 24 hours with the respective powdery mildew species as described for the foliar spray tests. Inoculated plants are kept in the greenhouse for 6–8 days for disease development. Disease severity is examined and the % control is calculated as [% disease on untreated plants−% disease on treated plants]/% disease on untreated plants. The results of these tests are shown in Table 2B below under the heading “Drench Application—Barley Powdery Mildew” and “Drench Application—Cucumber Powdery Mildew”.

[10] = test system: Barley Powdery Mildew; experiment: Soil drench for the control of barley powdery mildew; assay type: in vivo, Erysiyphe graminis f.sp. hordei; conditions: 300 ppm, greenhouse soil drench
Experimental: as §1, §2

[11] = test system: Uromyces appendiculatus; experiment: Foliar spray for the control of bean rust; assay type: in vivo; conditions: 300 ppm, greenhouse foliar spray, Pinto bean plants
Experimental: Foliar Spray for the Control of Bean Rust Caused by Uromyces appendiculatus
Technical grade material at defined ppm rates (w/v) in an acetone:water mixture (1:9) containing 0.1% Tween 20 (v/v) is sprayed to near run-off onto 10-days-old greenhouse-grown Pinto bean plants (var. “Othello”) in the second leaf stage. Treated plants are inoculated within 24 hours with an aqueous suspension of approximately 20,000 uredospores of Uromyces appendiculatus harvested from rust-infected plants. Inoculated plants are placed into a high humidity chamber for 24 hr and then transferred to the greenhouse for two weeks for disease development. Disease severity is examined and the % control is calculated as [% disease on untreated plants−% disease on treated plants]/% disease on untreated plants. The results of these tests are shown in Table 2A below under the heading “Foliar Application—Bean Rust”.

[12] = test system: Rhizoctonia solani; experiment: microbe, parasite or virus in culture; assay type: cell-based
[13] = test system: Botrytis cinerea; experiment: microbe, parasite or virus in culture; assay type: cell-based
[14] = test system: Helminthosporium sativum; experiment: Foliar spray for the control of barley blotch; assay type: in vivo; conditions: greenhouse foliar spray, barley plants; for pest or weed control at 300 ppm: Helminthosporium, read-out: Foliar Application (Percent Control) Barley Blotch
Experimental: Foliar Spray for the Control of Barley Blotch Caused by Helminthosporium sativum
Technical grade material at defined ppm rates (w/v) in an acetone:water mixture (1:9) containing 0.1% Tween 20 (v/v) is sprayed to near run-off onto 7-days-old greenhouse-grown barley plants (var. “Robust”) at the cotyledon stage. Treated plants are inoculated within 24 hours from spraying with an aqueous suspension of approximately 15,000 conidia/ml of Helminthosporium sativum grown on artificial medium. Inoculated plants are placed into a high humidity chamber for 24 hr and then transferred to the greenhouse for 4–5 days for disease development. Disease severity is examined and the % control is calculated as [% disease on untreated plants−% disease on treated plants]/% disease on untreated plants.
The results of these tests are shown in Table 2A below under the heading “Foliar Application—Barley Blotch”.

[15] = Phytophthora infestans, 48 h, read-out: Percent Control Phytophthora infestants
[16] = Microdochium nivale, 48 h, read-out: Percent Control Fusarium nivale
[17] = Globisporangium ultimum, 48 h, read-out: Percent Control Pythium ultimum
[18] = Rhizoctonia solani, 48 h, read-out: Percent Control Rhizoctonia solani
[19] = Botrytis cinerea, 48 h, read-out: Percent Control Botrytis cinerea

## CC(C)OC(=O)NNc1ccc(Oc2cccc(C(F)(F)F)c2)cc1 [Compound 1, 1-methylethyl 2-[4-[3-(trifluoromethyl)phenoxy]phenyl]hydrazinecarboxylate]
[1]; [15]
  inhibition of growth at 100 ppm: 100%
[2]
  Foliar Application (Percent Control) Geranium Gray Mold: 87%
[3]
  Foliar Application (Percent Control) Tomato Late Blight: 12%
[4]
  Percent Control Sclerotium rolfsii: 100%
[5]
  pest or weed control at 300 ppm: 79%
[6]
  pest or weed control at 300 ppm: 90%
[7]; [16]
  inhibition of growth at 100 ppm: 29%
[8]; [17]
  inhibition of growth at 100 ppm: 100%
[9]
  Drench Application (Percent Control) Cucumber Powdery Mildew: 0%
[10]
  Drench Application (Percent Control) Barley Powdery Mildew: 0%
[11]
  Foliar Application (Percent Control) Bean Rust: 97%
[12]; [18]
  inhibition of growth at 100 ppm: 91%
[13]; [19]
  inhibition of growth at 100 ppm: 100%
[14]
  pest or weed control at 300 ppm: 97%

## CC(C)OC(=O)NN(C(=O)C(F)(F)F)c1ccc(Oc2cccc(C(F)(F)F)c2)cc1 [Compound 2, 1-methylethyl 2-(trifluoroacetyl)-2-[4-[3-(trifluoromethyl)phenoxy]phenyl]-hydrazine carboxylate]
[1]; [15]
  inhibition of growth at 100 ppm: 100%
[4]
  Percent Control Sclerotium rolfsii: 67%
[5]
  pest or weed control at 300 ppm: 15%
[6]
  pest or weed control at 300 ppm: 25%
[7]; [16]
  inhibition of growth at 100 ppm: 20%
[8]; [17]
  inhibition of growth at 100 ppm: 100%
[9]
  Drench Application (Percent Control) Cucumber Powdery Mildew: 0%
[10]
  Drench Application (Percent Control) Barley Powdery Mildew: 0%
[11]
  Foliar Application (Percent Control) Bean Rust: 0%
[12]; [18]
  inhibition of growth at 100 ppm: 82%
[13]; [19]
  inhibition of growth at 100 ppm: 90%
[14]
  pest or weed control at 300 ppm: 99%

## CC(C)OC(=O)NN(C)c1ccc(Oc2cccc(C(F)(F)F)c2)cc1 [Compound 3, 1-methylethyl 2-methyl-2-[4-[3-(trifluoromethyl)phenoxy]phenyl]hydrazine carboxylate]
[1]; [15]
  inhibition of growth at 50 ppm: 79%
[2]
  Foliar Application (Percent Control) Geranium Gray Mold: 87%
[5]
  pest or weed control at 300 ppm: 10%
[6]
  pest or weed control at 300 ppm: 62%
[7]; [16]
  inhibition of growth at 50 ppm: 82%
[8]; [17]
  inhibition of growth at 50 ppm: 100%
[9]
  Drench Application (Percent Control) Cucumber Powdery Mildew: 0%
[10]
  Drench Application (Percent Control) Barley Powdery Mildew: 0%
[11]
  Foliar Application (Percent Control) Bean Rust: 0%
[12]; [18]
  inhibition of growth at 50 ppm: 63%
[13]; [19]
  inhibition of growth at 50 ppm: 100%
[14]
  pest or weed control at 300 ppm: 0%

## CC(C)OC(=O)NN(C(=O)C(F)(F)F)c1ccc(Oc2cccc(Cl)c2)nc1 [Compound 6]
[1]; in vitro, rate 100 ppm, 48 hours
  Percent Control Phytophthora infestants: 100%
[2]
  Foliar Application (Percent Control) Geranium Gray Mold: 82%
[3]
  Foliar Application (Percent Control) Tomato Late Blight: 0%
[4]
  Percent Control Sclerotium rolfsii: 98%
[5]; 300 ppm, greenhouse foliar spray, rice plants
  Foliar Application (Percent Control) Rice Blast: 92%
[6]; 300 ppm
  Foliar Application (Percent Control) Barley Powdery Mildew: 0%
[7]
  Percent Control Fusarium nivale: 71%
[8]
  Percent Control Pythium ultimum: 25%
[9]
  Drench Application (Percent Control) Cucumber Powdery Mildew: 0%
[10]
  Drench Application (Percent Control) Barley Powdery Mildew: 0%
[11]
  Foliar Application (Percent Control) Bean Rust: 0%
[12]
  Percent Control Rhizoctonia solani: 100%
[13]
  Percent Control Botrytis cinerea: 98%
[14]; 300 ppm
  Foliar Application (Percent Control) Barley Blotch: 97%

## CC(=O)NNc1ccc(Oc2cccc(C(F)(F)F)c2)c(F)c1 [Compound 7, N′-{3-fluoro-4-[3-(trifluoromethyl)phenoxy]phenyl}acetohydrazide]
[1]; [15]
  inhibition of growth at 10 ppm: 0%
[2]
  Foliar Application (Percent Control) Geranium Gray Mold: 80%
[3]
  Foliar Application (Percent Control) Tomato Late Blight: 0%
[5]
  pest or weed control at 300 ppm: 0%
[6]
  pest or weed control at 300 ppm: 80%
[7]; [16]
  inhibition of growth at 10 ppm: 8%
[8]; [17]
  inhibition of growth at 10 ppm: 8%
[12]; [18]
  inhibition of growth at 10 ppm: 80%
[13]; [19]
  inhibition of growth at 10 ppm: 30%
[14]
  pest or weed control at 300 ppm: 80%

## CC(C)OC(=O)NNc1ccc(-c2cccc(C(F)(F)F)c2)c(F)c1 [Compound 8, isopropyl 2-[2-fluoro-3′-(trifluoromethyl)-1,1′-biphenyl-4-yl]hydrazine-carboxylate]
[1]; [15]
  inhibition of growth at 10 ppm: 18%
[2]
  Foliar Application (Percent Control) Geranium Gray Mold: 90%
[3]
  Foliar Application (Percent Control) Tomato Late Blight: 0%
[5]
  pest or weed control at 300 ppm: 70%
[6]
  pest or weed control at 300 ppm: 0%
[7]; [16]
  inhibition of growth at 10 ppm: 22%
[8]; [17]
  inhibition of growth at 10 ppm: 26%
[12]; [18]
  inhibition of growth at 10 ppm: 58%
[13]; [19]
  inhibition of growth at 10 ppm: 63%
[14]
  pest or weed control at 300 ppm: 98%

## CC(C)OC(=O)N=Nc1ccc(Oc2cccc(C(F)(F)F)c2)cc1 [Compound 9, 1-methylethyl [4-[3-(trifluoromethyl)phenoxy]phenyl]diazene carboxylate]
[1]; [15]
  inhibition of growth at 100 ppm: 9%
[4]
  Percent Control Sclerotium rolfsii: 91%
[5]
  pest or weed control at 300 ppm: 98%
[6]
  pest or weed control at 300 ppm: 15%
[7]; [16]
  inhibition of growth at 100 ppm: 75%
[8]; [17]
  inhibition of growth at 100 ppm: 0%
[9]
  Drench Application (Percent Control) Cucumber Powdery Mildew: 0%
[10]
  Drench Application (Percent Control) Barley Powdery Mildew: 25%
[11]
  Foliar Application (Percent Control) Bean Rust: 45%
[12]; [18]
  inhibition of growth at 100 ppm: 22%
[13]; [19]
  inhibition of growth at 100 ppm: 77%
[14]
  pest or weed control at 300 ppm: 97%

## CC(C)OC(=O)N1CN(C)CN1c1ccc(Oc2cccc(C(F)(F)F)c2)c(F)c1 [Compound 10, 1-methylethyl 2-[3-fluoro-4-[3-(trifluoromethyl)phenoxy]phenyl]-4-methyl-1,2,4-triazolidine-1-carboxylate]
[1]; [15]
  inhibition of growth at 100 ppm: 0%
[2]
  Foliar Application (Percent Control) Geranium Gray Mold: 0%
[5]
  pest or weed control at 300 ppm: 0%
[6]
  pest or weed control at 300 ppm: 100%
[7]; [16]
  inhibition of growth at 100 ppm: 0%
[8]; [17]
  inhibition of growth at 100 ppm: 0%
[12]; [18]
  inhibition of growth at 100 ppm: 79%
[13]; [19]
  inhibition of growth at 100 ppm: 0%
[14]
  pest or weed control at 300 ppm: 90%

## CCC(=NNc1ccc(Oc2cccc(C(F)(F)F)c2)c(F)c1)[N+](=O)[O-] [Compound 12, 1-{3-fluoro-4-[3-(trifluoromethyl)phenoxy]phenyl}-2-(1-nitropropylidene)-hydrazine]
[1]; [15]
  inhibition of growth at 10 ppm: 0%
[2]
  Foliar Application (Percent Control) Geranium Gray Mold: 0%
[3]
  Foliar Application (Percent Control) Tomato Late Blight: 0%
[5]
  pest or weed control at 300 ppm: 0%
[6]
  pest or weed control at 300 ppm: 80%
[7]; [16]
  inhibition of growth at 10 ppm: 20%
[8]; [17]
  inhibition of growth at 10 ppm: 3%
[12]; [18]
  inhibition of growth at 10 ppm: 68%
[13]; [19]
  inhibition of growth at 10 ppm: 18%
[14]
  pest or weed control at 300 ppm: 0%

Source: patent US7045512B2 (priority 2003, dated 2006)
